Results from the supplement of paper PMC10307832.

What was measured:
Assay in all cases: relative viability (nuclei count vs DMSO), 5 days (fraction); higher = more cells survive
ABC-1 = system: ABC-1
Method in brief: (§1)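 Lung cancer cell lines, seeded in 1536-well plates, were treated the following day by pin tool with a single drug or with five library-drug doses (not always all listed) in √10 steps on top of a fixed anchor-drug dose. Cells were fixed and nuclei stained in one step after 5 days, and nuclei were counted. Relative viability is the nuclei count for treated wells divided by that for vehicle wells, reported as medians of duplicate plates.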

BEN = system: BEN
Method in brief: as §1

EPLC-272H = system: EPLC-272H
Method in brief: as §1

HCC-827 = system: HCC-827
Method in brief: as §1

HOP-62 = system: HOP-62
Method in brief: as §1

LU99A = system: LU99A
Method in brief: as §1

NCI-H1355 = system: NCI-H1355
Method in brief: as §1

NCI-H1666 = system: NCI-H1666
Method in brief: as §1

NCI-H1792 = system: NCI-H1792
Method in brief: as §1

NCI-H1975 = system: NCI-H1975
Method in brief: as §1

NCI-H2170 = system: NCI-H2170
Method in brief: as §1

NCI-H23 = system: NCI-H23
Method in brief: as §1

NCI-H2405 = system: NCI-H2405
Method in brief: as §1

NCI-H3122 = system: NCI-H3122
Method in brief: as §1

NCI-H322M = system: NCI-H322M
Method in brief: as §1

NCI-H358 = system: NCI-H358
Method in brief: as §1

NCI-H520 = system: NCI-H520
Method in brief: as §1

NCI-H596 = system: NCI-H596
Method in brief: as §1

NCI-H647 = system: NCI-H647
Method in brief: as §1

NCI-H727 = system: NCI-H727
Method in brief: as §1

NCI-H838 = system: NCI-H838
Method in brief: as §1

PC-14 = system: PC-14
Method in brief: as §1

UMC-11 = system: UMC-11
Method in brief: as §1

`O=c1[nH]c2ccccc2n1C1CCN(CCCC(c2ccc(F)cc2)c2ccc(F)cc2)CC1` [Pimozide] + Cc1nc(Nc2ncc(C(=O)Nc3c(C)cccc3Cl)s2)cc(N2CCN(CCO)CC2)n1 [Dasatinib] (partner 0.075 µM) showed a relative viability (ABC-1; first compound 0.08 µM) of 0.521, a relative viability (ABC-1; first compound 0.253 µM) of 0.48 and a relative viability (ABC-1; first compound 0.8 µM) of 0.518. It also gave a relative viability (ABC-1; first compound 2.53 µM) of 0.388, a relative viability (ABC-1; first compound 8 µM) of 0.396 and a relative viability (BEN; first compound 0.08 µM) of 0.279. The relative viability (BEN; first compound 0.253 µM) was 0.364, the relative viability (BEN; first compound 0.8 µM) was 0.26 and the relative viability (BEN; first compound 2.53 µM) was 0.329. For the same compound, the relative viability (BEN; first compound 8 µM) was 0.412, the relative viability (EPLC-272H; first compound 0.08 µM) was 0.298 and the relative viability (EPLC-272H; first compound 0.253 µM) was 0.322. The relative viability (EPLC-272H; first compound 0.8 µM) was 0.385, the relative viability (EPLC-272H; first compound 2.53 µM) was 0.293 and the relative viability (EPLC-272H; first compound 8 µM) was 0.215. For the same compound, the relative viability (HCC-827; first compound 0.253 µM) was 0.265, the relative viability (HCC-827; first compound 0.8 µM) was 0.327 and the relative viability (HCC-827; first compound 2.53 µM) was 0.32. For the same compound, the relative viability (HCC-827; first compound 8 µM) was 0.34, the relative viability (HOP-62; first compound 0.08 µM) was 0.698 and the relative viability (HOP-62; first compound 0.253 µM) was 0.617. It also gave a relative viability (HOP-62; first compound 2.53 µM) of 0.685, a relative viability (HOP-62; first compound 8 µM) of 0.651 and a relative viability (LU99A; first compound 0.08 µM) of 0.539. It also gave a relative viability (LU99A; first compound 0.253 µM) of 0.527, a relative viability (LU99A; first compound 0.8 µM) of 0.531 and a relative viability (LU99A; first compound 2.53 µM) of 0.459. For the same compound, the relative viability (LU99A; first compound 8 µM) was 0.459, the relative viability (NCI-H1355; first compound 0.08 µM) was 0.744 and the relative viability (NCI-H1355; first compound 0.253 µM) was 0.722. For the same compound, the relative viability (NCI-H1355; first compound 0.8 µM) was 0.671, the relative viability (NCI-H1355; first compound 2.53 µM) was 0.672 and the relative viability (NCI-H1355; first compound 8 µM) was 0.732. For the same compound, the relative viability (NCI-H1666; first compound 0.08 µM) was 0.752, the relative viability (NCI-H1666; first compound 0.253 µM) was 0.814 and the relative viability (NCI-H1666; first compound 0.8 µM) was 0.82. It also gave a relative viability (NCI-H1666; first compound 2.53 µM) of 0.708, a relative viability (NCI-H1666; first compound 8 µM) of 0.684 and a relative viability (NCI-H1792; first compound 0.08 µM) of 0.89. It also gave a relative viability (NCI-H1792; first compound 0.253 µM) of 0.823, a relative viability (NCI-H1792; first compound 0.8 µM) of 0.769 and a relative viability (NCI-H1792; first compound 2.53 µM) of 0.973. The relative viability (NCI-H1792; first compound 8 µM) was 0.849, the relative viability (NCI-H1975; first compound 0.08 µM) was 0.415 and the relative viability (NCI-H1975; first compound 0.253 µM) was 0.342. The relative viability (NCI-H1975; first compound 0.8 µM) was 0.345, the relative viability (NCI-H1975; first compound 2.53 µM) was 0.346 and the relative viability (NCI-H1975; first compound 8 µM) was 0.294. It also gave a relative viability (NCI-H2170; first compound 0.08 µM) of 0.432, a relative viability (NCI-H2170; first compound 0.253 µM) of 0.475 and a relative viability (NCI-H2170; first compound 0.8 µM) of 0.627. For the same compound, the relative viability (NCI-H2170; first compound 2.53 µM) was 0.555, the relative viability (NCI-H2170; first compound 8 µM) was 0.599 and the relative viability (NCI-H23; first compound 0.08 µM) was 0.887. For the same compound, the relative viability (NCI-H23; first compound 0.253 µM) was 0.84, the relative viability (NCI-H23; first compound 0.8 µM) was 0.71 and the relative viability (NCI-H23; first compound 2.53 µM) was 0.679. It also gave a relative viability (NCI-H23; first compound 8 µM) of 0.802, a relative viability (NCI-H2405; first compound 0.08 µM) of 0.219 and a relative viability (NCI-H2405; first compound 0.253 µM) of 0.228. The relative viability (NCI-H2405; first compound 0.8 µM) was 0.198, the relative viability (NCI-H2405; first compound 2.53 µM) was 0.187 and the relative viability (NCI-H2405; first compound 8 µM) was 0.188. The relative viability (NCI-H3122; first compound 0.08 µM) was 0.885, the relative viability (NCI-H3122; first compound 0.253 µM) was 0.861 and the relative viability (NCI-H3122; first compound 0.8 µM) was 0.385. For the same compound, the relative viability (NCI-H3122; first compound 2.53 µM) was 0.851, the relative viability (NCI-H3122; first compound 8 µM) was 0.688 and the relative viability (NCI-H322M; first compound 0.253 µM) was 0.234. The relative viability (NCI-H322M; first compound 0.8 µM) was 0.247, the relative viability (NCI-H322M; first compound 2.53 µM) was 0.257 and the relative viability (NCI-H322M; first compound 8 µM) was 0.231. The relative viability (NCI-H358; first compound 0.08 µM) was 0.16, the relative viability (NCI-H358; first compound 0.253 µM) was 0.199 and the relative viability (NCI-H358; first compound 0.8 µM) was 0.157. The relative viability (NCI-H358; first compound 2.53 µM) was 0.156, the relative viability (NCI-H358; first compound 8 µM) was 0.172 and the relative viability (NCI-H520; first compound 0.08 µM) was 0.216. For the same compound, the relative viability (NCI-H520; first compound 0.253 µM) was 0.184, the relative viability (NCI-H520; first compound 0.8 µM) was 0.185 and the relative viability (NCI-H520; first compound 2.53 µM) was 0.176. It also gave a relative viability (NCI-H520; first compound 8 µM) of 0.225, a relative viability (NCI-H596; first compound 0.08 µM) of 0.565 and a relative viability (NCI-H596; first compound 0.253 µM) of 0.572. It also gave a relative viability (NCI-H596; first compound 0.8 µM) of 0.624, a relative viability (NCI-H596; first compound 2.53 µM) of 0.553 and a relative viability (NCI-H596; first compound 8 µM) of 0.662. For the same compound, the relative viability (NCI-H647; first compound 0.08 µM) was 0.41, the relative viability (NCI-H647; first compound 0.253 µM) was 0.233 and the relative viability (NCI-H647; first compound 0.8 µM) was 0.198. For the same compound, the relative viability (NCI-H647; first compound 2.53 µM) was 0.179, the relative viability (NCI-H647; first compound 8 µM) was 0.162 and the relative viability (NCI-H727; first compound 0.08 µM) was 0.36. The relative viability (NCI-H727; first compound 0.253 µM) was 0.347, the relative viability (NCI-H727; first compound 0.8 µM) was 0.4 and the relative viability (NCI-H727; first compound 2.53 µM) was 0.358. The relative viability (NCI-H727; first compound 8 µM) was 0.405, the relative viability (NCI-H838; first compound 0.08 µM) was 0.266 and the relative viability (NCI-H838; first compound 0.253 µM) was 0.282. It also gave a relative viability (NCI-H838; first compound 0.8 µM) of 0.225, a relative viability (NCI-H838; first compound 2.53 µM) of 0.302 and a relative viability (NCI-H838; first compound 8 µM) of 0.279. It also gave a relative viability (PC-14; first compound 0.08 µM) of 0.027, a relative viability (PC-14; first compound 0.253 µM) of 0.241 and a relative viability (PC-14; first compound 0.8 µM) of 0.272. It also gave a relative viability (PC-14; first compound 2.53 µM) of 0.306, a relative viability (PC-14; first compound 8 µM) of 0.18 and a relative viability (UMC-11; first compound 0.08 µM) of 0.46. For the same compound, the relative viability (UMC-11; first compound 0.253 µM) was 0.45, the relative viability (UMC-11; first compound 0.8 µM) was 0.468 and the relative viability (UMC-11; first compound 2.53 µM) was 0.431. The relative viability (UMC-11; first compound 8 µM) was 0.424.
